In series [1] the target is T1, human serine racemase (hSR) (Homo sapiens, UniProt Q9GZT4).
T1 sequence (Q9GZT4 1-340): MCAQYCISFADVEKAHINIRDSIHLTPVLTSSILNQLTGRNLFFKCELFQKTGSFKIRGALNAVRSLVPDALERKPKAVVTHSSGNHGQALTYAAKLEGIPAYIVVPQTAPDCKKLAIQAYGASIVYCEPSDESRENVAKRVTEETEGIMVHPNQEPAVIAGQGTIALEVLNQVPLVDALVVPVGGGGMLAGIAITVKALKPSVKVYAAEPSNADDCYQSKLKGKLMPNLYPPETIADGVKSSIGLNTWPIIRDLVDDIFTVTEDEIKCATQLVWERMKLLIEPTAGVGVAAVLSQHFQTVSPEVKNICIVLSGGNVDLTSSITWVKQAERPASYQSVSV
The note with it: cited from earlier work.

Series [2] deals with T1, human serine racemase (hSR). Description: steady state kinetic analysis, coupled UV-vis assay for β-elimination. The series is classed as biochemical.
Series [3] has as its target T2, human serine racemase (hSR), allosteric ATP site (Homo sapiens, UniProt Q9GZT4).
T2 sequence (Q9GZT4 1-340): T1 sequence (Q9GZT4 1-340)
The series is described as follows: steady state competition against ATP, L-Ser held constant at 30 mM. The series is classed as biochemical. Conditions: L-Ser constant at 30 mM.

Series [4] is described as follows: solubility under assay conditions. The series is classed as physicochemical.
Series [5] deals with T1, human serine racemase (hSR). The series is described as follows: 13C/2H-isotopic crosstalk NMR dual function assay. Conditions: for IC50: 13C/2H crosstalk NMR assay.
Setting [6] is: read-out: IC50(H/D-exchange), L-Ser 30 mM.
The mark [7] stands for this setting: read-out: IC50(β-elimination), positive controls.

Like-named read-outs stand apart in the source and are kept apart here.

The values below come from paper PMC11103274 (Journal of the American Chemical Society, 2023).

One may read the Ki as a measure of affinity in units of concentration, obtained from inhibition or displacement.

For the molecule `NC(=O)C1=CN([C@@H]2O[C@H](COP(=O)(O)O)[C@@H](O)[C@H]2O)C=CC1` [NMNH, nicotinamide mononucleotide, reduced form], in series [1] (ref Mozzarelli and co-workers), the “mode of inhibition with respect to substrate” value was “non-competitive inhibition”.
In the case of `N[C@H](C(=O)O)[C@@H](O)C(=O)O` [L-EHA, L-erythro-β-hydroxy-aspartate], the Ki in series [1] (literature, most potent inhibitors yet identified) is around 30 µM.
With `O=C(O)CC(=O)O` [malonate], the Ki in series [1] (ref 33a) was 20 to 120 µM.
For the molecule “N-H indolo-chroman-2,4-dione [compound 10]”, the inhibition constant Ki in series [2] (read-out: Ki (L-SOS elim), β-elimination of L-serine-O-sulfate) turned out to be 12 ± 4 µM; in series [2] (read-out: Ki (L-Ser elim), β-elimination of L-Ser), 44 ± 6 µM. In addition, the “mode of inhibition vs. substrate” value in series [2] (steady state kinetics) is on record as “non-competitive inhibition”. For the same molecule, the “mode of inhibition vs. ATP” value in series [3] is recorded as “competing with ATP for the allosteric site”. Moreover, the relative solubility entry in series [4] is “more soluble than the N-alkyl congeners”. In series [5] (1 mM), the “inhibition in the NMR screen” value is “complete inhibition”. Also, the “Hill coefficient of dose-response curve” value in series [5] (NMR assay) is listed as ~ 2. The IC50 in series [5] (setting [6]) came out at 0.045 ± 0.006 mM; in series [5] (read-out: IC50(β-elimination), L-Ser 30 mM), 0.036 ± 0.01 mM.
Turning to `O=C(O)CP(=O)(O)O` [compound 1, phosphonoacetate, reference compound], the IC50 was found to be 0.089 ± 0.035 mM in series [5] (setting [6]) and 39 ± 2 mM in series [5] (setting [7]).
Regarding `CCOP(=O)(CC(=O)O)OCC` [compound 2, diethyl phosphonate acetate, reference compound], the IC50 in series [5] (read-out: IC50(H/D-exchange), positive controls) is 95 ± 10 mM; in series [5] (setting [7]), 96 ± 19 mM.
As to `O=C(O)C(Cl)(Cl)C(=O)O` [dichloromalonate], the Ki in series [1] was around 20 µM.
